Reference: PMC8623179, “Design and Microwave Synthesis of New (5Z) 5-Arylidene-2-thioxo-1,3-thiazolinidin-4-one and (5Z) 2-Amino-5-arylidene-1,3-thiazol-4(5H)-one as New Inhibitors of Protein Kinase DYRK1A” (Pharmaceuticals, 2021)
Values joined by “and” are separate entries in the source; they are usually repeats but may differ in a detail not shown here. Equal values may be shown once. Read-outs that look alike come from different tables or passages of the source.

Tests used:
[1] = test system: DYRK1A; settings: reported; cited from earlier work
[2] = biological target: Casein kinase 1 (CK1δ/ε); settings: read-out: IC50 CK1, positive control, cited from earlier work
[3] = test system: GSK-3α/β; settings: read-out: IC50 GSK3α/β, positive control, cited from earlier work
[4] = biological target: Casein kinase 1 (CK1δ/ε); assay: CK1δ/ε kinase assay; type: biochemical, porcine; settings: Table 4; 15 μM ATP; read-out: IC50 CK1
Experimental: (§1) The twenty-two (5Z) 5-arylidene-2-thioxo-1,3-thiazolidin-4-ones 3a–v and the twenty-four (5Z) 2-amino-5-arylidene-1,3-thiazolidin-4(5H)-ones 5a–x were evaluated against four different and representative in vitro kinase assays DYRK1A (dual specificity tyrosine phosphorylation regulated kinase), CK1 δ/e (caseine kinase 1), CDK5/p25 (cyclin dependant kinase), and GSK3 α/β (glycogen synthase kinase 3) to evaluate their inhibition potency. […] All the compounds were initially tested at a 10 μM concentration.
(§2) After 30-min incubation at 30 °C, the reaction was stopped by harvesting, using a FilterMate harvester (Packard), onto P81 phospho-cellulose papers (GE Healthcare, Chicago, IL, USA) which were washed in 1% phosphoric acid. Scintillation fluid was added and the radioactivity measured in a Packard counter. Blank values were subtracted and activities calculated as pmoles of phosphate incorporated for the 30-min incubation. The activities were expressed in % of the maximal activity, i.e., in the absence of inhibitors. Controls were performed with appropriate dilutions of DMSO.
Casein kinase 1 (CK1δ/ε) (porcine brain, native) was assayed with 0.67 µg of CKS peptide ([…]pSAYSITA), a CK1 specific substrate obtained from Millegen (Labege, France).

[5] = test system: MDA-MB231; assay: Cell survival assay, MDA-MB231; type: cell-based; settings: Homo sapiens, MDA-MB-231; 48 h exposure, nuclei count; read-out: Cell Lines IC50 MDA-MB231
Experimental: (§3) Skin diploid fibroblastic cells were provided by BIOPREDIC International Company (Rennes, France). […] Cells were grown according to ECACC recommendations. The toxicity test of the compounds on these cells was as follows: 2 × 10^3 cells for HCT-116 cells or 4 × 10^3 for the other cells were seeded in 96-multi-well plates in triplicate and left for 24 h for attachment, spreading and growing. Then, cells were exposed for 48 h to increasing concentrations of the compounds, ranging from […], in a final volume of 120 μL of culture medium. […] The IC50 were graphically determined.

[6] = biological target: GSK-3α/β; assay: GSK-3α/β kinase assay; type: biochemical, porcine; settings: Table 4; 15 μM ATP; read-out: IC50 GSK3α/β
Experimental: as §1, §2
GSK-3α/β (porcine brain, native) was assayed, as described for CDK5/p25 but in Buffer A and using a GSK-3 specific substrate (GS-1: […]pEDEEE) (pS stands for phosphorylated serine). GS-1 was synthesized by Millegen (Labege, France).

[7] = test system: NCI-H727; assay: Cell survival assay, NCI-H727; type: cell-based; settings: Homo sapiens, 48 h exposure, nuclei count, read-out: Cell Lines IC50 NCI-H727
Experimental: as §3

[8] = biological target: T1, DYRK1A (Rattus norvegicus, UniProt Q63470); assay: DYRK1A kinase assay; type: biochemical; settings: Table 4; 15 μM ATP
T1 construct: GST; made in house; host or cells: Escherichia coli
Experimental: as §1
as §2, with “DMSO. […]” for “DMSO.”

[9] = test system: PC3; assay: Cell survival assay, PC3; type: cell-based; settings: Homo sapiens, PC-3; 48 h exposure, nuclei count; read-out: Cell Lines IC50 PC3
Experimental: as §3

[10] = test system: Huh7 D12; assay: Cell survival assay, Huh7 D12; type: cell-based; settings: Huh-7D12; 48 h exposure, nuclei count; read-out: Cell Lines IC50 Huh7 D12
Experimental: as §3

[11] = test system: Caco2; assay: Cell survival assay, Caco2; type: cell-based; settings: Homo sapiens, Caco-2; 48 h exposure, nuclei count; read-out: Cell Lines IC50 Caco2
Experimental: as §3

[12] = test system: HCT116; assay: Cell survival assay, HCT116; type: cell-based; settings: Homo sapiens, HCT-116; 48 h exposure, nuclei count; read-out: Cell Lines IC50 HCT116
Experimental: as §3

[13] = biological target: T2, CDK5/p25 (Homo sapiens, UniProt Q00535); assay: CDK5/p25 kinase assay; type: biochemical; settings: Table 4; 15 μM ATP
T2 construct: made in house
T2 sequence (Q00535 whole entry): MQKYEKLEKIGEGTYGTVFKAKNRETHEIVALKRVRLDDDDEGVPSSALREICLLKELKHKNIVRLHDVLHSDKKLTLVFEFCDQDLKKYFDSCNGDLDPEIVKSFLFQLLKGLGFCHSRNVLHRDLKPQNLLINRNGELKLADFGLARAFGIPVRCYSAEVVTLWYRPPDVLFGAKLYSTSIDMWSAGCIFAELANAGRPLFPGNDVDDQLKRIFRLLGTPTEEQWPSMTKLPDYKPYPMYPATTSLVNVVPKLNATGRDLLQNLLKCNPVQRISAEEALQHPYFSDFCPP
T2 sequence (Q15078 99-307 partner limits assumed): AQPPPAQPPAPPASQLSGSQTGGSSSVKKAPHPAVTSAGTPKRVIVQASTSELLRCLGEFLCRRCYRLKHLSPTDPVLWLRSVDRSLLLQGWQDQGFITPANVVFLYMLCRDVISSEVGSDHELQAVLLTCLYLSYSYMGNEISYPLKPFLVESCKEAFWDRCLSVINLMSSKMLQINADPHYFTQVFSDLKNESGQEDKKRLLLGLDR
Experimental: as §1, §2
CDK5/p25 (human, recombinant) was prepared as previously described. […] ATP (3000 Ci/mmol; 10 mCi/mL) in a final volume of 30 μL. After 30-min incubation at 30 °C, 25 μL aliquots of supernatant were spotted onto 2.5 × 3 cm pieces of Whatman P81 phospho-cellulose paper, and, 20 s later, the filters were washed five times (for at least 5 min each time) in a solution of 10 mL phosphoric acid/litter of water. The wet filters were counted in the presence of 1 mL ACS (Amersham, UK) scintillation fluid.

[14] = test system: Fibroblasts; assay: Cell survival assay, normal skin diploid fibroblasts; type: cell-based; settings: Fibroblast; normal cells, 48 h exposure, nuclei count; read-out: Cell Lines IC50 Fibroblasts
Experimental: as §3

[15] = Table 5, same values as Table 4

Row | IC50 [4] [µM] | IC50 [6] [µM] | IC50 [8] [µM] | melting point [°C] | IC50 [13] [µM] | Compound | IC50 [1] | IC50 ([2]; Table 4) [µM] | IC50 [2, 15] [µM] | IC50 ([3]; Table 4) [µM] | IC50 [3, 15] [µM] | IC50 [5] [µM] | IC50 [7] [µM] | IC50 [9] [µM] | IC50 [10] [µM] | IC50 [11] [µM] | IC50 [12] [µM] | IC50 [14] [µM]
1 | – | – | – | – | – | COc1ccc2c(c1)[nH]c1c(C)nccc12 [Harmine] | […] | 1.5 | 1.5 | > 10 | > 10 | – | – | – | – | – | – | –
2 | > 10 | ≤ 10 | 0.056 | 250 to 252 | > 10 | O=C1NC(=S)S/C1=C\c1ccc2c(c1)OCCO2 [Compound 3f, (5Z)-5-(2,3-Dihydro-1,4-benzodioxin-6-ylmethylene)-2-thioxo-1,3-thiazolidin-4-one] | – | – | – | – | – | > 25 | > 25 | > 25 | > 25 | > 25 | > 25 | > 25
